Activity calls are given as the source filed them. The rule behind the calls is not given here. Residues, ends and D or L forms follow the SMILES beside them.
Key:
[1] = target: T1, Mu-type opioid receptor (Homo sapiens, UniProt P35372); test: Intrinsic efficacy at GFP-fused mu opioid receptor (unknown origin) expressed in HEK293 cells assessed as recruitment of beta-arrestin-2 after 10 mins by BRET assay relative to untreated control; format: cell-based; conditions: hek293, 10 min
[2] = target: T1, Mu-type opioid receptor; test: Agonist activity at GFP-fused mu opioid receptor (unknown origin) expressed in HEK293 cells assessed as recruitment of beta-arrestin-2 after 10 mins by BRET assay; format: cell-based
[3] = target: Mu-type opioid receptor (Rattus norvegicus, UniProt P33535); test: Displacement of [3H]DAMGO from mu opioid receptor in Sprague-Dawley rat brain P2 synaptosomal membranes
[4] = target: T1, Mu-type opioid receptor; conditions: HEK293, at 1 µM
[5] = target: Mu-type opioid receptor (Cavia porcellus, UniProt P97266); test: Agonist activity at mu opioid receptor in guinea pig ileum assessed as inhibition of electrically-stimulated muscle contraction; format: tissue-based
[6] = target: Delta-type opioid receptor (Mus musculus, UniProt P32300); test: Agonist activity at delta opioid receptor in mouse vas deferens assessed as inhibition of electrically-stimulated muscle contraction; format: tissue-based
[7] = target: T2, Delta-type opioid receptor (Homo sapiens, UniProt P41143); test: Agonist activity at GFP-fused delta opioid receptor (unknown origin) expressed in HEK293 cells assessed as recruitment of beta-arrestin-2 after 10 mins by BRET assay; format: functional, cell-based
[8] = target: T1, Mu-type opioid receptor; test: Potency index, ratio of DAMGO EC50 to compound EC50 for mu opioid receptor (unknown origin) by beta-arrestin-2 recruitment assay
[9] = target: T2, Delta-type opioid receptor; conditions: HEK293, at 100 µM
[10] = target: Delta-type opioid receptor (Rattus norvegicus, UniProt P33533); test: Displacement of [3H]deltorphin-2 from delta opioid receptor in Sprague-Dawley rat brain P2 synaptosomal membranes
[11] = target: T3, Kappa-type opioid receptor (Homo sapiens, UniProt P41145); test: Agonist activity at GFP-fused kappa opioid receptor (unknown origin) expressed in HEK293 cells assessed as recruitment of beta-arrestin-2 after 10 mins by BRET assay; format: cell-based
[12] = target: T2, Delta-type opioid receptor; conditions: HEK293, at 100 µM; remark: listed apart in the source
[13] = target: T2, Delta-type opioid receptor; conditions: HEK293, at 0.1 to 10 µM
[14] = target: T3, Kappa-type opioid receptor; conditions: HEK293, at 0.1 to 10 µM
[15] = target: T1, Mu-type opioid receptor; conditions: HEK293, at 100 µM
[16] = target: T1, Mu-type opioid receptor; test: Displacement of [3H]DAMGO from mu opioid receptor (unknown origin)
[17] = target: T2, Delta-type opioid receptor; test: Displacement of [3H]DPDPE from delta opioid receptor (unknown origin)
[18] = target: T2, Delta-type opioid receptor; test: Agonist activity at delta opioid receptor (unknown origin) expressed in HEK293 cells assessed as inhibition of forskolin-induced cAMP accumulation after 30 mins; format: functional, cell-based
[19] = Displacement of [3H]DPDPE from delta opioid receptor in guinea pig brain membranes after 1 hr; format: cell membranes, Cavia porcellus, Membrane

Mu-type opioid receptor (Cavia porcellus, UniProt P97266), sequence (P97266 whole entry): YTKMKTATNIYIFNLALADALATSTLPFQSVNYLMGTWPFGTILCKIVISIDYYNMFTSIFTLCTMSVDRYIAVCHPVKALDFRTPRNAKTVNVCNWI
Delta-type opioid receptor (Rattus norvegicus, UniProt P33533), sequence (P33533 whole entry, the tested form may be a part): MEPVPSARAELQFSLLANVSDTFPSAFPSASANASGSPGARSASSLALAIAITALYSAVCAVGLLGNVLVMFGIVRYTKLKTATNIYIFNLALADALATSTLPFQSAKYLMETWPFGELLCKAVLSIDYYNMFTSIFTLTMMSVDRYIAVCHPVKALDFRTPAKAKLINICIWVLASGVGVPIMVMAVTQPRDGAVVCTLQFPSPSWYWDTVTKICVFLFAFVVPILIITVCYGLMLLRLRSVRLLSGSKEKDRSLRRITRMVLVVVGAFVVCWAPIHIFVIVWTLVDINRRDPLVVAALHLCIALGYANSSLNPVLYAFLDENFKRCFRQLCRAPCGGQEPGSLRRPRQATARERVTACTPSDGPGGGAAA
Delta-type opioid receptor (Mus musculus, UniProt P32300), sequence (P32300 whole entry, the tested form may be a part): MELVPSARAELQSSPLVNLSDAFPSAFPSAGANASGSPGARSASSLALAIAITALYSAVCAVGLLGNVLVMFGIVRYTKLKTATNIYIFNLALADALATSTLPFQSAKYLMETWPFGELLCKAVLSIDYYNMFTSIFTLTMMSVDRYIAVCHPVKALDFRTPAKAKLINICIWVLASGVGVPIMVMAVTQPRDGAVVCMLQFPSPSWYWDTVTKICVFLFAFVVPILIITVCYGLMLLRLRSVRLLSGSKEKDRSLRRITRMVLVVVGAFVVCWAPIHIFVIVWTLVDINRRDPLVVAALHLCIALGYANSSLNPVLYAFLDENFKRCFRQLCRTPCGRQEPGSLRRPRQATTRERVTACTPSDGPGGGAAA
T3 sequence (P41145 whole entry, the tested form may be a part): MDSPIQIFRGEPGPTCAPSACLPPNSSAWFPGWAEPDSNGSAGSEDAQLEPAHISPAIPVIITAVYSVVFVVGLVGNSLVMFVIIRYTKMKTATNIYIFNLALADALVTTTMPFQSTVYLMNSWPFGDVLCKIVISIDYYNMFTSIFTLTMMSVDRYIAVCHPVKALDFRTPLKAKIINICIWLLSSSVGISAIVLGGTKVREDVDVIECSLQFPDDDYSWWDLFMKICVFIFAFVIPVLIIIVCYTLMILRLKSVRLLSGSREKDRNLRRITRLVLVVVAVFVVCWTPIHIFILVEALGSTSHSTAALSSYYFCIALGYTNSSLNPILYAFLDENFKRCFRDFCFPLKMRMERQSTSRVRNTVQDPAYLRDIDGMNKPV
Mu-type opioid receptor (Rattus norvegicus, UniProt P33535), sequence (P33535 whole entry): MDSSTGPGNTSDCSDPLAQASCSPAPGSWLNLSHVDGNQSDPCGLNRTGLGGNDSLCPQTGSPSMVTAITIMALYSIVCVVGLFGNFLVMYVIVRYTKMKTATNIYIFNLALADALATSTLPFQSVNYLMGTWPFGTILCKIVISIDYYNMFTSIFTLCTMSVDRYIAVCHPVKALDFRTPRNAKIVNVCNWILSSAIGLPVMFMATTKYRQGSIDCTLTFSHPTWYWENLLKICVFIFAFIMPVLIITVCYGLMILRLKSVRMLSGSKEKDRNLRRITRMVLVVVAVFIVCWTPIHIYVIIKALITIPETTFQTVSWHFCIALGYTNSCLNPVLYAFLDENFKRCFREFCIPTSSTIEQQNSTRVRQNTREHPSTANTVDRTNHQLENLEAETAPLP
T2 sequence (P41143 whole entry, the tested form may be a part): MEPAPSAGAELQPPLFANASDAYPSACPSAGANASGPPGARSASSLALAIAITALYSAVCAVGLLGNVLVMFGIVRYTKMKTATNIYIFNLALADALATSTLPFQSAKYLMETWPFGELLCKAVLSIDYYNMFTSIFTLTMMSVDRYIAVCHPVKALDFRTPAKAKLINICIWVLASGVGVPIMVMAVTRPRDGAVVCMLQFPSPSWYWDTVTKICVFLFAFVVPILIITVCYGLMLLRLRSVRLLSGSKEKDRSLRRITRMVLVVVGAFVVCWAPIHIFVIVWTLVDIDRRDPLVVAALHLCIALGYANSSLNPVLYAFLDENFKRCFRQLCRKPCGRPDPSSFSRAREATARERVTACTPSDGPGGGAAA
T1 sequence (P35372 whole entry, the tested form may be a part): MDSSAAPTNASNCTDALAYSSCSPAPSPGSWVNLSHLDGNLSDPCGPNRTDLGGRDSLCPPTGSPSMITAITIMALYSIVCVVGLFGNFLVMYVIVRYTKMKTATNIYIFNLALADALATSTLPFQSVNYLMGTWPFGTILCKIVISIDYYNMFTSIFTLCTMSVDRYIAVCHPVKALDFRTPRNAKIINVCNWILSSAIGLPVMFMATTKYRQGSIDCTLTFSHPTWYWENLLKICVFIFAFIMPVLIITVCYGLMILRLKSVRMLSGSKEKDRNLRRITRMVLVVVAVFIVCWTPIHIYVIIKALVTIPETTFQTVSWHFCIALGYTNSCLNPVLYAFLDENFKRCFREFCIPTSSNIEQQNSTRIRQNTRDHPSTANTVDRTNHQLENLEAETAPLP

Cc1cc(C)c(C[C@H](NC(=O)[C@@H]2CCCN2C(=O)[C@@H](N)Cc2c(C)cc(O)cc2C)C(N)=O)c(C)c1 showed a Ratio [1] of 0.4, an EC50 ([2]; read-out: EC50) of 18.6 nM and a Ki [3] of 0.13 nM. The inhibition [4] was “Active”, the IC50 [5] was 2.68 nM and the IC50 [6] was greater than 10 µM. For the same molecule, the EC50 [7] was “Not Active”, the “Ratio EC50” value [8] was 20 and the inhibition [9] was “inactive”. The Ki [10] was 13.1 nM, the EC50 [11] was “Not Active” and the inhibition [12] was “inactive”. For the same molecule, the inhibition [13] was “inactive” and the inhibition [14] was “inactive”.

In the case of Cc1cc(C)c(C[C@H](NC(=O)[C@H](Cc2ccccc2)NC(=O)[C@@H]2CCCN2C(=O)[C@@H](N)Cc2c(C)cc(O)cc2C)C(N)=O)c(C)c1, the EC50 ([2]; hek293) is reported as “Not Active”, the Ki [3] is reported as 0.37 nM and the inhibition [4] is reported as “Active”. The IC50 [5] was 66.7 nM, the IC50 [6] was greater than 10 µM and the EC50 [7] was “Not Active”. The inhibition [9] was “inactive”, the Ki [10] was 24.5 nM and the EC50 [11] was “Not Active”. The inhibition [12] was “inactive”, the inhibition [15] was “inactive” and the inhibition [13] was “inactive”. For the same molecule, the inhibition [14] was “inactive”.

In the case of Cc1cccc(C)c1C[C@H](NC(=O)[C@H](Cc1ccccc1)NC(=O)[C@@H]1CCCN1C(=O)[C@@H](N)Cc1c(C)cc(O)cc1C)C(N)=O, the EC50 ([2]; hek293) is reported as “Not Active”, the Ki [3] is reported as 0.31 nM and the inhibition [4] is reported as “Active”. For the same molecule, the IC50 [5] was 249 nM, the IC50 [6] was greater than 10 µM and the EC50 [7] was “Not Active”. The inhibition [9] was “inactive”, the Ki [10] was 40 nM and the EC50 [11] was “Not Active”. The inhibition [12] was “inactive”, the inhibition [15] was “inactive” and the inhibition [13] was “inactive”. For the same molecule, the inhibition [14] was “inactive”.

With Cc1cc(C)c(C[C@H](NC(=O)[C@H](Cc2c(C)cc(C)cc2C)NC(=O)[C@@H]2CCCN2C(=O)[C@@H](N)Cc2c(C)cc(O)cc2C)C(N)=O)c(C)c1 the EC50 ([2]; hek293) was “Not Active”, the Ki [3] was 0.47 nM and the inhibition [4] was “Active”. The IC50 [5] was 9.28 nM, the IC50 [6] was greater than 10 µM and the EC50 [7] was “Not Active”. For the same molecule, the inhibition [9] was “Active”, the Ki [10] was 1.63 nM and the EC50 [11] was “Not Active”. The inhibition [12] was “Active”, the inhibition [13] was “inactive” and the inhibition [14] was “inactive”.

For C[C@@H](NC(=O)[C@@H](N)Cc1ccc(O)cc1)C(=O)NCC(=O)N(C)[C@@H](Cc1ccccc1)C(=O)NCCO, the inhibition [4] was “Active”.

Work on Oc1ccc2c3c1O[C@H]1c4oc5ccccc5c4C[C@@]4(O)[C@@H](C2)N(CC2CC2)CC[C@]314 yielded an inhibition [9] of 50%.

With Cc1cc(O)cc(C)c1C[C@H](N)C(=O)N1CCC[C@H]1C(=O)N[C@@H](Cc1ccccc1)C(=O)N[C@@H](Cc1c[nH]c2ccccc12)C(N)=O (HELM PEPTIDE1{[Cc1cc(O)cc(C)c1C[C@H](N)C(=O)[*:2]].P.F.W.[am]}$$$$V2.0) the EC50 ([2]; hek293) was “Not Active”, the Ki [3] was 0.34 nM and the inhibition [4] was “Active”. The IC50 [5] was 207 nM, the IC50 [6] was greater than 10 µM and the EC50 [7] was “Not Active”. The inhibition [9] was “inactive”, the Ki [10] was 25.4 nM and the EC50 [11] was “Not Active”. For the same molecule, the inhibition [12] was “inactive”, the inhibition [15] was “inactive” and the inhibition [13] was “inactive”. The inhibition [14] was “inactive”.

For Cc1cc(O)cc(C)c1C[C@H](NC(=O)[C@H](Cc1ccccc1)NC(=O)[C@@H]1CCCN1C(=O)[C@@H](N)Cc1c(C)cc(O)cc1C)C(N)=O (HELM PEPTIDE1{[Cc1cc(O)cc(C)c1C[C@H](N)C(=O)[*:2]].P.F.[Cc1cc(O)cc(C)c1C[C@H](N[*:1])C(=O)[*:2]].[am]}$$$$V2.0), the EC50 ([2]; hek293) was “Not Active”, the Ki [3] was 0.28 nM and the inhibition [4] was “Active”. For the same molecule, the IC50 [5] was 44.6 nM, the IC50 [6] was greater than 10 µM and the EC50 [7] was “Not Active”. The inhibition [9] was “inactive”, the Ki [10] was 87.2 nM and the EC50 [11] was “Not Active”. For the same molecule, the inhibition [12] was “inactive”, the inhibition [15] was “inactive” and the inhibition [13] was “inactive”. For the same molecule, the inhibition [14] was “inactive”.

With Cc1cc(O)cc(C)c1C[C@H](N)C(=O)N1CCC[C@H]1C(=O)N[C@@H](Cc1ccccc1)C(=O)N[C@@H](Cc1ccc2ccccc2c1)C(N)=O (HELM PEPTIDE1{[Cc1cc(O)cc(C)c1C[C@H](N)C(=O)[*:2]].P.F.[O=C([C@H](Cc1ccc2ccccc2c1)N[*:1])[*:2]].[am]}$$$$V2.0) the EC50 ([2]; hek293) was “Not Active”, the Ki [3] was 0.81 nM and the inhibition [4] was “Active”. For the same molecule, the IC50 [5] was 40.2 nM, the IC50 [6] was greater than 10 µM and the EC50 [7] was “Not Active”. For the same molecule, the inhibition [9] was “inactive”, the Ki [10] was 23.2 nM and the EC50 [11] was “Not Active”. For the same molecule, the inhibition [12] was “inactive”, the inhibition [15] was “Active” and the inhibition [13] was “inactive”. The inhibition [14] was “inactive”.

With Cc1cc(O)cc(C)c1C[C@H](N)C(=O)N1CCC[C@H]1C(=O)N[C@@H](Cc1ccccc1)C(=O)N[C@@H](Cc1cccc2ccccc12)C(N)=O (HELM PEPTIDE1{[Cc1cc(O)cc(C)c1C[C@H](N)C(=O)[*:2]].P.F.[O=C([C@H](Cc1cccc2ccccc12)N[*:1])[*:2]].[am]}$$$$V2.0) the EC50 ([2]; hek293) was “Not Active”, the Ki [3] was 0.28 nM and the inhibition [4] was “Active”. The IC50 [5] was 14.3 nM, the IC50 [6] was greater than 10 µM and the EC50 [7] was “Not Active”. The inhibition [9] was “inactive”, the Ki [10] was 51.7 nM and the EC50 [11] was “Not Active”. The inhibition [12] was “inactive”, the inhibition [13] was “inactive” and the inhibition [14] was “inactive”.

With Cc1cc(O)cc(C)c1C[C@H](N)C(=O)N1CCC[C@H]1C(=O)N[C@@H](Cc1ccccc1)C(N)=O (HELM PEPTIDE1{[Cc1cc(O)cc(C)c1C[C@H](N)C(=O)[*:2]].P.F.[am]}$$$$V2.0) the Ki [16] was 0.12 nM, the IC50 [5] was 2.33 nM and the IC50 [6] was 0.113 µM. It also gave a Ki [17] of 53.2 nM.

For Cc1cc(O)cc(C)c1C[C@H](N)C(=O)N1CCC[C@H]1C(=O)N[C@@H](Cc1c[nH]c2ccccc12)C(N)=O (HELM PEPTIDE1{[Cc1cc(O)cc(C)c1C[C@H](N)C(=O)[*:2]].P.W.[am]}$$$$V2.0), the Ratio [1] was 0.6, the EC50 ([2]; read-out: EC50) was 6.3 nM and the Ki [3] was 0.21 nM. The inhibition [4] was “Active”, the IC50 [5] was 10.4 nM and the IC50 [6] was greater than 10 µM. The EC50 [7] was “Not Active”, the “Ratio EC50” value [8] was 60 and the inhibition [9] was “inactive”. The IC50 [18] was less than 100 nM, the Ki [10] was 66.4 nM and the EC50 [11] was “Not Active”. For the same molecule, the inhibition [12] was “inactive”, the inhibition [15] was “Active” and the inhibition [13] was “Active”. For the same molecule, the inhibition [14] was “Active”.

For Cc1cccc(C)c1C[C@H](NC(=O)[C@@H]1CCCN1C(=O)[C@@H](N)Cc1c(C)cc(O)cc1C)C(N)=O (HELM PEPTIDE1{[Cc1cc(O)cc(C)c1C[C@H](N)C(=O)[*:2]].P.[Cc1cccc(C)c1C[C@H](N[*:1])C(=O)[*:2]].[am]}$$$$V2.0), the EC50 ([2]; hek293) was “Not Active”, the Ki [3] was 0.15 nM and the IC50 [5] was 0.274 nM. For the same molecule, the IC50 [6] was 0.745 µM, the EC50 [7] was “Not Active” and the Ki [10] was 33 nM. The EC50 [11] was “Not Active”.

For Cc1cc(O)cc(C)c1C[C@H](N)C(=O)N1CCC[C@H]1C(=O)N[C@@H](Cc1ccc2ccccc2c1)C(N)=O (HELM PEPTIDE1{[Cc1cc(O)cc(C)c1C[C@H](N)C(=O)[*:2]].P.[O=C([C@H](Cc1ccc2ccccc2c1)N[*:1])[*:2]].[am]}$$$$V2.0), the EC50 ([2]; hek293) was “Not Active”, the Ki [3] was 16.9 nM and the inhibition [4] was “Active”. The IC50 [5] was greater than 10000 nM, the IC50 [6] was greater than 10 µM and the EC50 [7] was “Not Active”. The inhibition [9] was “inactive”, the Ki [10] was 68.3 nM and the EC50 [11] was “Not Active”. The inhibition [12] was “inactive”, the inhibition [13] was “inactive” and the inhibition [14] was “inactive”.

With Cc1cc(O)cc(C)c1C[C@H](N)C(=O)N1CCC[C@H]1C(=O)N[C@@H](Cc1cccc2ccccc12)C(N)=O (HELM PEPTIDE1{[Cc1cc(O)cc(C)c1C[C@H](N)C(=O)[*:2]].P.[O=C([C@H](Cc1cccc2ccccc12)N[*:1])[*:2]].[am]}$$$$V2.0) the EC50 ([2]; hek293) was “Not Active”, the Ki [3] was 0.7 nM and the IC50 [5] was 4.63 nM. The IC50 [6] was 10 µM, the EC50 [7] was “Not Active” and the Ki [10] was 121 nM. The EC50 [11] was “Not Active”.

CC(C)C[C@@H](NC(=O)[C@H](Cc1ccccc1)NC(=O)CNC(=O)[C@@H](C)NC(=O)[C@@H](N)Cc1ccc(O)cc1)C(=O)O [DADLE] showed an IC50 [5] of 13.4 nM and a Ki [19] of 0.3 nM.
